Test results reported in ChEMBL document CHEMBL3352227, “Synthesis, antimycobacterial and antibacterial evaluation of l-[(1R, 2S)-2-fluorocyclopropyl]fluoroquinolone derivatives containing an oxime functional moiety” (Eur J Med Chem, 2014).
Values after ≈ are worked out from the molar mass of the structure shown.

Tests used:
Assay type in all cases: functional
[1] = test system: Mycobacterium tuberculosis; assay: Antimycobacterial activity against Mycobacterium tuberculosis H37Rv ATCC 27294 by MABA method
Escherichia coli [2] = assay: Antibacterial activity against Escherichia coli ATCC 25922 after 18 to 24 hrs by standard twofold serial dilution method
Escherichia coli [3] = assay: Antibacterial activity against Escherichia coli 12-1 after 18 to 24 hrs by standard twofold serial dilution method
Escherichia coli [4] = assay: Antibacterial activity against extended-spectrum beta-lactamase producing Escherichia coli 12-2 after 18 to 24 hrs by standard twofold serial dilution method
Escherichia coli [5] = assay: Antibacterial activity against extended-spectrum beta-lactamase producing Escherichia coli 12-3 after 18 to 24 hrs by standard twofold serial dilution method
Escherichia coli [6] = assay: Antibacterial activity against extended-spectrum beta-lactamase producing Escherichia coli 12-14 after 18 to 24 hrs by standard twofold serial dilution method
Escherichia coli [7] = assay: Antibacterial activity against extended-spectrum beta-lactamase producing Escherichia coli 12-15 after 18 to 24 hrs by standard twofold serial dilution method
Klebsiella pneumoniae [8] = assay: Antibacterial activity against Klebsiella pneumoniae 12-1 after 18 to 24 hrs by standard twofold serial dilution method
Klebsiella pneumoniae [9] = assay: Antibacterial activity against Klebsiella pneumoniae 12-2 after 18 to 24 hrs by standard twofold serial dilution method
Klebsiella pneumoniae [10] = assay: Antibacterial activity against Klebsiella pneumoniae 12-4 after 18 to 24 hrs by standard twofold serial dilution method
Klebsiella pneumoniae [11] = assay: Antibacterial activity against extended-spectrum beta-lactamase producin Klebsiella pneumoniae 12-3 after 18 to 24 hrs by standard twofold serial dilution method
Klebsiella pneumoniae [12] = assay: Antibacterial activity against extended-spectrum beta-lactamase producin Klebsiella pneumoniae 12-4 after 18 to 24 hrs by standard twofold serial dilution method
Klebsiella pneumoniae [13] = assay: Antibacterial activity against extended-spectrum beta-lactamase producin Klebsiella pneumoniae 12-7 after 18 to 24 hrs by standard twofold serial dilution method
Klebsiella pneumoniae [14] = assay: Antibacterial activity against extended-spectrum beta-lactamase producin Klebsiella pneumoniae 12-14 after 18 to 24 hrs by standard twofold serial dilution method
Pseudomonas aeruginosa [15] = assay: Antibacterial activity against Pseudomonas aeruginosa 12-12 after 18 to 24 hrs by standard twofold serial dilution method
Pseudomonas aeruginosa [16] = assay: Antibacterial activity against Pseudomonas aeruginosa 12-14 after 18 to 24 hrs by standard twofold serial dilution method
Staphylococcus aureus [17] = assay: Antibacterial activity against Staphylococcus aureus ATCC 25923 after 18 to 24 hrs by standard twofold serial dilution method
Staphylococcus aureus [18] = assay: Antibacterial activity against methicillin-sensitive Staphylococcus aureus 12-1 after 18 to 24 hrs by standard twofold serial dilution method
Staphylococcus aureus [19] = assay: Antibacterial activity against methicillin-sensitive Staphylococcus aureus 12-2 after 18 to 24 hrs by standard twofold serial dilution method
Staphylococcus aureus [20] = assay: Antibacterial activity against methicillin-sensitive Staphylococcus aureus 12-4 after 18 to 24 hrs by standard twofold serial dilution method
Staphylococcus aureus [21] = assay: Antibacterial activity against methicillin-sensitive Staphylococcus aureus 12-5 after 18 to 24 hrs by standard twofold serial dilution method
Staphylococcus aureus [22] = assay: Antibacterial activity against methicillin-resistant Staphylococcus aureus 12-2 after 18 to 24 hrs by standard twofold serial dilution method
Staphylococcus aureus [23] = assay: Antibacterial activity against methicillin-resistant Staphylococcus aureus 12-4 after 18 to 24 hrs by standard twofold serial dilution method
Staphylococcus aureus [24] = assay: Antibacterial activity against methicillin-resistant Staphylococcus aureus 12-5 after 18 to 24 hrs by standard twofold serial dilution method
[25] = test system: Staphylococcus epidermidis; assay: Antibacterial activity against methicillin-sensitive Staphylococcus epidermidis 12-1 after 18 to 24 hrs by standard twofold serial dilution method
[26] = test system: Staphylococcus epidermidis; assay: Antibacterial activity against methicillin-sensitive Staphylococcus epidermidis 12-3 after 18 to 24 hrs by standard twofold serial dilution method
[27] = test system: Staphylococcus epidermidis; assay: Antibacterial activity against methicillin-sensitive Staphylococcus epidermidis 12-6 after 18 to 24 hrs by standard twofold serial dilution method
[28] = test system: Staphylococcus epidermidis; assay: Antibacterial activity against methicillin-sensitive Staphylococcus epidermidis 12-8 after 18 to 24 hrs by standard twofold serial dilution method
[29] = test system: Staphylococcus epidermidis; assay: Antibacterial activity against methicillin-resistant Staphylococcus epidermidis 12-1 after 18 to 24 hrs by standard twofold serial dilution method
[30] = test system: Staphylococcus epidermidis; assay: Antibacterial activity against methicillin-resistant Staphylococcus epidermidis 12-6 after 18 to 24 hrs by standard twofold serial dilution method
Streptococcus pneumoniae [31] = assay: Antibacterial activity against Streptococcus pneumoniae ATCC 49619 after 18 to 24 hrs by standard twofold serial dilution method
Streptococcus pneumoniae [32] = assay: Antibacterial activity against Streptococcus pneumoniae 12-18 after 18 to 24 hrs by standard twofold serial dilution method

Compound	MIC [1]	MIC (Escherichia coli [2])	MIC (Escherichia coli [3])	MIC (Escherichia coli [4])	MIC (Escherichia coli [5])	MIC (Escherichia coli [6])	MIC (Escherichia coli [7])	MIC (Klebsiella pneumoniae [8])	MIC (Klebsiella pneumoniae [9])	MIC (Klebsiella pneumoniae [10])	MIC (Klebsiella pneumoniae [11])	MIC (Klebsiella pneumoniae [12])	MIC (Klebsiella pneumoniae [13])	MIC (Klebsiella pneumoniae [14])	MIC (Pseudomonas aeruginosa [15])	MIC (Pseudomonas aeruginosa [16])	MIC (Staphylococcus aureus [17])	MIC (Staphylococcus aureus [18])	MIC (Staphylococcus aureus [19])	MIC (Staphylococcus aureus [20])	further results
CCO/N=C1/CN(c2nc3c(cc2F)c(=O)c(C(=O)O)cn3[C@@H]2C[C@@H]2F)[C@H]1CN	1 µg/mL (≈ 2.45 µM)	0.125 µg/mL (≈ 0.307 µM)	2 µg/mL (≈ 4.91 µM)	> 128 µg/mL	16 µg/mL (≈ 39.3 µM)	128 µg/mL (≈ 314 µM)	> 128 µg/mL	0.5 µg/mL (≈ 1.23 µM)	0.5 µg/mL (≈ 1.23 µM)	0.25 µg/mL (≈ 0.614 µM)	128 µg/mL (≈ 314 µM)	8 µg/mL (≈ 19.6 µM)	4 µg/mL (≈ 9.82 µM)	64 µg/mL (≈ 157 µM)	1 µg/mL (≈ 2.45 µM)	32 µg/mL (≈ 78.6 µM)	0.5 µg/mL (≈ 1.23 µM)	0.5 µg/mL (≈ 1.23 µM)	0.25 µg/mL (≈ 0.614 µM)	0.25 µg/mL (≈ 0.614 µM)	MIC (Staphylococcus aureus [21]): 0.5 µg/mL (≈ 1.23 µM); MIC (Staphylococcus aureus [22]): 64 µg/mL (≈ 157 µM); MIC (Staphylococcus aureus [23]): 64 µg/mL (≈ 157 µM); MIC (Staphylococcus aureus [24]): 64 µg/mL (≈ 157 µM); MIC [25]: 0.5 µg/mL (≈ 1.23 µM); MIC [26]: 1 µg/mL (≈ 2.45 µM); MIC [27]: 0.25 µg/mL (≈ 0.614 µM); MIC [28]: 16 µg/mL (≈ 39.3 µM); MIC [29]: 16 µg/mL (≈ 39.3 µM); MIC [30]: 16 µg/mL (≈ 39.3 µM); MIC (Streptococcus pneumoniae [31]): 0.5 µg/mL (≈ 1.23 µM); MIC (Streptococcus pneumoniae [32]): 4 µg/mL (≈ 9.82 µM)
NC[C@H]1/C(=N\OCc2ccccc2)CN1c1nc2c(cc1F)c(=O)c(C(=O)O)cn2[C@@H]1C[C@@H]1F	2 µg/mL (≈ 4.26 µM)	0.125 µg/mL (≈ 0.266 µM)	0.25 µg/mL (≈ 0.533 µM)	> 128 µg/mL	32 µg/mL (≈ 68.2 µM)	> 128 µg/mL	> 128 µg/mL	0.5 µg/mL (≈ 1.07 µM)	1 µg/mL (≈ 2.13 µM)	1 µg/mL (≈ 2.13 µM)	> 128 µg/mL	16 µg/mL (≈ 34.1 µM)	4 µg/mL (≈ 8.52 µM)	> 128 µg/mL	4 µg/mL (≈ 8.52 µM)	64 µg/mL (≈ 136 µM)	0.125 µg/mL (≈ 0.266 µM)	0.25 µg/mL (≈ 0.533 µM)	0.25 µg/mL (≈ 0.533 µM)	0.125 µg/mL (≈ 0.266 µM)	MIC (Staphylococcus aureus [21]): 0.25 µg/mL (≈ 0.533 µM); MIC (Staphylococcus aureus [22]): 64 µg/mL (≈ 136 µM); MIC (Staphylococcus aureus [23]): 32 µg/mL (≈ 68.2 µM); MIC (Staphylococcus aureus [24]): 32 µg/mL (≈ 68.2 µM); MIC [25]: 0.25 µg/mL (≈ 0.533 µM); MIC [26]: 0.5 µg/mL (≈ 1.07 µM); MIC [27]: 0.25 µg/mL (≈ 0.533 µM); MIC [28]: 8 µg/mL (≈ 17 µM); MIC [29]: 16 µg/mL (≈ 34.1 µM); MIC [30]: 8 µg/mL (≈ 17 µM); MIC (Streptococcus pneumoniae [31]): 0.5 µg/mL (≈ 1.07 µM); MIC (Streptococcus pneumoniae [32]): 4 µg/mL (≈ 8.52 µM)
CO/N=C1/CN(c2nc3c(cc2F)c(=O)c(C(=O)O)cn3[C@@H]2C[C@@H]2F)[C@@H]1CN	4 µg/mL (≈ 10.2 µM)	0.25 µg/mL (≈ 0.636 µM)	2 µg/mL (≈ 5.08 µM)	> 128 µg/mL	16 µg/mL (≈ 40.7 µM)	> 128 µg/mL	> 128 µg/mL	1 µg/mL (≈ 2.54 µM)	0.5 µg/mL (≈ 1.27 µM)	0.5 µg/mL (≈ 1.27 µM)	> 128 µg/mL	16 µg/mL (≈ 40.7 µM)	4 µg/mL (≈ 10.2 µM)	128 µg/mL (≈ 325 µM)	2 µg/mL (≈ 5.08 µM)	128 µg/mL (≈ 325 µM)	0.25 µg/mL (≈ 0.636 µM)	1 µg/mL (≈ 2.54 µM)	0.5 µg/mL (≈ 1.27 µM)	0.5 µg/mL (≈ 1.27 µM)	MIC (Staphylococcus aureus [21]): 0.5 µg/mL (≈ 1.27 µM); MIC (Staphylococcus aureus [22]): > 128 µg/mL; MIC (Staphylococcus aureus [23]): > 128 µg/mL; MIC (Staphylococcus aureus [24]): > 128 µg/mL; MIC [25]: 0.5 µg/mL (≈ 1.27 µM); MIC [26]: 0.5 µg/mL (≈ 1.27 µM); MIC [27]: 0.5 µg/mL (≈ 1.27 µM); MIC [28]: 32 µg/mL (≈ 81.4 µM); MIC [29]: 64 µg/mL (≈ 163 µM); MIC [30]: 64 µg/mL (≈ 163 µM); MIC (Streptococcus pneumoniae [31]): 1 µg/mL (≈ 2.54 µM); MIC (Streptococcus pneumoniae [32]): 4 µg/mL (≈ 10.2 µM)
CCO/N=C1/CN(c2nc3c(cc2F)c(=O)c(C(=O)O)cn3[C@@H]2C[C@@H]2F)[C@@H]1CN	4 µg/mL (≈ 9.82 µM)	0.5 µg/mL (≈ 1.23 µM)	2 µg/mL (≈ 4.91 µM)	> 128 µg/mL	32 µg/mL (≈ 78.6 µM)	> 128 µg/mL	> 128 µg/mL	1 µg/mL (≈ 2.45 µM)	1 µg/mL (≈ 2.45 µM)	1 µg/mL (≈ 2.45 µM)	> 128 µg/mL	32 µg/mL (≈ 78.6 µM)	8 µg/mL (≈ 19.6 µM)	> 128 µg/mL	4 µg/mL (≈ 9.82 µM)	128 µg/mL (≈ 314 µM)	0.25 µg/mL (≈ 0.614 µM)	0.5 µg/mL (≈ 1.23 µM)	0.5 µg/mL (≈ 1.23 µM)	0.25 µg/mL (≈ 0.614 µM)	MIC (Staphylococcus aureus [21]): 0.5 µg/mL (≈ 1.23 µM); MIC (Staphylococcus aureus [22]): > 128 µg/mL; MIC (Staphylococcus aureus [23]): > 128 µg/mL; MIC (Staphylococcus aureus [24]): > 128 µg/mL; MIC [25]: 0.5 µg/mL (≈ 1.23 µM); MIC [26]: 2 µg/mL (≈ 4.91 µM); MIC [27]: 0.5 µg/mL (≈ 1.23 µM); MIC [28]: 32 µg/mL (≈ 78.6 µM); MIC [29]: 64 µg/mL (≈ 157 µM); MIC [30]: 32 µg/mL (≈ 78.6 µM); MIC (Streptococcus pneumoniae [31]): 2 µg/mL (≈ 4.91 µM); MIC (Streptococcus pneumoniae [32]): 8 µg/mL (≈ 19.6 µM)
NC[C@@H]1/C(=N\OCc2ccccc2)CN1c1nc2c(cc1F)c(=O)c(C(=O)O)cn2[C@@H]1C[C@@H]1F	2 µg/mL (≈ 4.26 µM)	0.5 µg/mL (≈ 1.07 µM)	4 µg/mL (≈ 8.52 µM)	> 128 µg/mL	16 µg/mL (≈ 34.1 µM)	> 128 µg/mL	> 128 µg/mL	1 µg/mL (≈ 2.13 µM)	1 µg/mL (≈ 2.13 µM)	1 µg/mL (≈ 2.13 µM)	> 128 µg/mL	32 µg/mL (≈ 68.2 µM)	8 µg/mL (≈ 17 µM)	128 µg/mL (≈ 273 µM)	8 µg/mL (≈ 17 µM)	128 µg/mL (≈ 273 µM)	0.5 µg/mL (≈ 1.07 µM)	0.5 µg/mL (≈ 1.07 µM)	0.25 µg/mL (≈ 0.533 µM)	0.25 µg/mL (≈ 0.533 µM)	MIC (Staphylococcus aureus [21]): 0.25 µg/mL (≈ 0.533 µM); MIC (Staphylococcus aureus [22]): 128 µg/mL (≈ 273 µM); MIC (Staphylococcus aureus [23]): 128 µg/mL (≈ 273 µM); MIC (Staphylococcus aureus [24]): 128 µg/mL (≈ 273 µM); MIC [25]: 0.5 µg/mL (≈ 1.07 µM); MIC [26]: 1 µg/mL (≈ 2.13 µM); MIC [27]: 0.5 µg/mL (≈ 1.07 µM); MIC [28]: 32 µg/mL (≈ 68.2 µM); MIC [29]: 32 µg/mL (≈ 68.2 µM); MIC [30]: 32 µg/mL (≈ 68.2 µM); MIC (Streptococcus pneumoniae [31]): 1 µg/mL (≈ 2.13 µM); MIC (Streptococcus pneumoniae [32]): 4 µg/mL (≈ 8.52 µM)
